pIC50: −log10 of the molar value.
How the values were obtained:
HDAC10 = target: T1, HDAC10 (Homo sapiens, UniProt Q969S8); assay: Selective in vitro HDAC activity assay, recombinant HDAC10; assay type: biochemical; conditions: 100 µM
T1 sequence (Q969S8 1-669): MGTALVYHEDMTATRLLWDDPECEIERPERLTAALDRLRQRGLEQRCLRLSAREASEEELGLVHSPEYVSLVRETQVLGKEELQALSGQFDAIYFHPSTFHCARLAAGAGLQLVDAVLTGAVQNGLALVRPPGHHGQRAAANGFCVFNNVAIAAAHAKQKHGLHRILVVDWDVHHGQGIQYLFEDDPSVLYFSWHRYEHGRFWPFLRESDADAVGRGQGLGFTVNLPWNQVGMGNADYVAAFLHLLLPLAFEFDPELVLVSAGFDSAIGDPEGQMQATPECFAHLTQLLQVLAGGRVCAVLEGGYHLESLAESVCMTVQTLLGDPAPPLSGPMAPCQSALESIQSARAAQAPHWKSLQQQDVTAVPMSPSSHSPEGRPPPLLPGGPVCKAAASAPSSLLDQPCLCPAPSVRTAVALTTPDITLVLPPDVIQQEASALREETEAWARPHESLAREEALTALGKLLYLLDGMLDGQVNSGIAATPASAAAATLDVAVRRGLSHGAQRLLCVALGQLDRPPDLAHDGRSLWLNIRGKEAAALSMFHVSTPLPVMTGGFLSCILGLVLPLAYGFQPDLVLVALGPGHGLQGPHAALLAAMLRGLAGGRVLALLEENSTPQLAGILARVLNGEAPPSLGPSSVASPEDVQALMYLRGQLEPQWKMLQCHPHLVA
Experimental: (a) In vitro total HDAC activity was evaluated using K-562 nuclear extracts in the presence of various concentrations of eurochevalierine. (b) Selective in vitro HDAC activity assays were carried out using selected recombinant HDAC proteins in the presence of various concentrations of eurochevalierine. Results are reported as percent of DMSO vehicle control and expressed as the mean ± SD of three independent experiments. * and ** indicate p < 0.05 and p < 0.01 versus untreated cells, respectively.

[1] = tested on: PBMCs from healthy donors; assay: Viability of PBMCs from healthy donors (Trypan Blue exclusion); assay type: cell-based; conditions: up to 48 h, up to 100 µM
Experimental: The viability of PBMCs from healthy donors was assessed after 24 and 48 h of treatment at the indicated concentration of eurochevalierine. Results correspond to mean ± SD of three independent experiments.
PBMCs were isolated as previously reported.
PBMCs and CD34^+ cells were processed through a semi-automated image-based cell analyzer (Cedex XS Innovatis, Roche, Luxembourg), which provides information about cell concentration and viability based on the Trypan Blue exclusion method.

A-549 cells = assay: Sub-G1 fraction by PI flow cytometry, A-549; assay type: cell-based, human; conditions: A-549, 50 µM, 72 h
Experimental: Figure 2 Effect of eurochevalierine on cell cycle distribution. Cells were treated with 50 µM eurochevalierine for 72 h and then stained with propidium iodide (PI), and DNA content was measured by flow cytometry. (a) Cell cycle distribution profile in A-549 cells. Results of three independent experiments are represented on the same graph. (b) Quantification of the number of cells in sub-G1 fraction as a percentage of the total cell population. Results are expressed as mean ± SD of at least three independent experiments.
Cells were collected, fixed, and stained with the APO AF TUNEL detection kit (BD, Erembodegem, Belgium) allowing analysis of both apoptosis and cell cycle at the same time. The experiment was conducted accordingly to the procedure of the manufacturer. Data were obtained through flow cytometry with a Cell Lab Quanta apparatus (Analis, Suarlee, Belgium).

SIRT3 = target: T2, SIRT3 (Homo sapiens, UniProt Q9NTG7); assay: In vitro SIRT3 activity assay; assay type: biochemical
T2 sequence (Q9NTG7 1-399): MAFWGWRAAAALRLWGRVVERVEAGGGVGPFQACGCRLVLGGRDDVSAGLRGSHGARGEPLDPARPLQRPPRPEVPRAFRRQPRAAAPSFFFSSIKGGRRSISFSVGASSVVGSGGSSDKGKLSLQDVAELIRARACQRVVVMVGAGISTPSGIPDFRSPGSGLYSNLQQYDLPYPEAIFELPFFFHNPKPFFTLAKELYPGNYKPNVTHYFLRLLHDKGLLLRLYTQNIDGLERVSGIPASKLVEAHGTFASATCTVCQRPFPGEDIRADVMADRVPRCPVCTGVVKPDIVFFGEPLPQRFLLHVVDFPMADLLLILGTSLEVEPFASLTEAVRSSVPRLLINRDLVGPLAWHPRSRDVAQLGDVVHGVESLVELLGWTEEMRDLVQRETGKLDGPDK

B16-F10 cells = assay: Sub-G1 fraction by PI flow cytometry, B16-F10; assay type: cell-based, murine; conditions: B16-F10, 50 µM, 72 h
U-373 cells = assay: Acetylation of sirtuin targets by Western blot, U-373; assay type: cell-based, human; conditions: U-373, 5 and 50 µM, 8 h
Experimental: Figure 5 Effect of eurochevalierine on the acetylation status of sirtuin targets. SK-MEL-28, U-373, and A-549 cells were treated with 5 and 50 µM eurochevalierine (EU) for 8 h. Acetylation of histone H4 (AcH4), histone H3 at lysine 56 (AcH3K56), and α-tubulin (Ac α-tubulin) was analyzed via Western blot. β-actin and histone H1 were used as loading controls for the analysis of total and acid extracts, respectively. SAHA (S, 1 µM) was used as a reference HDAC inhibitor. Blots are representative of three independent experiments.
Total proteins were extracted using the MPER® reagent (Thermo-scientific, Erembodegem-Aalst, Belgium) supplemented by 1× protease inhibitor cocktail (Complete EDTA-free, Roche, Prophac, Luxembourg, Luxembourg) according to manufacturer’s instructions. Histones were extracted as previously described. Western blots were carried out as previously reported.
Corresponding secondary antibodies were from Santa Cruz Biotechnology.

C=C(C)[C@@H]1CC[C@@H](C)[C@@]2(O)[C@@H]1C=C(C)[C@@H](OC(C)=O)[C@@H]2OC(=O)[C@H](CC(=O)c1ccccc1NC)NC=O [Eurochevalierine, eurochevalierine]
effect on HDAC10 deacetylase activity (HDAC10): without effect
acute toxicity on viability of PBMCs [1]: does not trigger any acute toxicity
sub-G1 fraction (A-549 cells): did not increase the sub-G1 fraction
remaining SIRT3 enzymatic activity compared to the control set to 100% (SIRT3; at 100 µM): 59%
pIC50 (SIRT3; mean ± SD of three independent experiments): < 4.00
sub-G1 fraction (B16-F10 cells): did not increase the sub-G1 fraction
acetylation of sirtuin targets (AcH4, AcH3K56, Ac α-tubulin) (U-373 cells): robust and dose-dependent increase

Source: article PMC6017873 (Molecules : A Journal of Synthetic Chemistry and Natural …, 2018)
